Experimental data reported in the NIST ThermoML archive (doi:10.1021/je800100m).

How the values were obtained:
[1] = Liquid; for speed of sound: 101.3 kPa, Sing-around technique in a fixed-path interferometer; for mass density: 101.33 kPa, Pycnometric method
[2] = xn = mol fraction of the nth substance listed; details: 308.15 K, 101 kPa, Liquid, Sing-around technique in a fixed-path interferometer

Cc1ccc(C)cc1 [1,4-dimethylbenzene]
[1], 298.15 K
Details	mass density [kg/m3]	speed of sound [m/s]
–	856.58	1310.1

Cc1ccccc1N [2-methylaniline]
[1]
Details	mass density [kg/m3]	speed of sound [m/s]
298.15 K	994.28	–
308.15 K	–	1603

Cc1ccccc1C [1,2-dimethylbenzene]
[1], 298.15 K
Details	mass density [kg/m3]	speed of sound [m/s]
–	875.99	1344

Cc1ccccc1N [2-methylaniline] + Cc1ccccc1C
[2]
Details	speed of sound [m/s]
x1 = 0.0799	1325
x1 = 0.1313	1328
x1 = 0.1977	1333
x1 = 0.2507	1338
x1 = 0.3003	1345
x1 = 0.3663	1355
x1 = 0.4456	1370
x1 = 0.508	1385
x1 = 0.5892	1408
x1 = 0.6666	1434
x1 = 0.7287	1459
x1 = 0.7884	1485
x1 = 0.8314	1505
x1 = 0.909	1547

Cc1ccccc1N [2-methylaniline] + Cc1ccc(C)cc1
[2]
Details	speed of sound [m/s]
x1 = 0.0534	1287
x1 = 0.1009	1295
x1 = 0.1707	1308
x1 = 0.2483	1325
x1 = 0.32	1342
x1 = 0.3949	1361
x1 = 0.4559	1378
x1 = 0.5332	1402
x1 = 0.6007	1423
x1 = 0.6897	1455
x1 = 0.7417	1475
x1 = 0.8009	1500
x1 = 0.8668	1530
x1 = 0.9374	1567

Cc1ccccc1 [toluene]
[1], 298.15 K
Details	mass density [kg/m3]	speed of sound [m/s]
–	862.21	1304.6

Cc1ccccc1N [2-methylaniline] + Cc1ccccc1
[2]
Details	speed of sound [m/s]
x1 = 0.0457	1270
x1 = 0.0998	1283
x1 = 0.1516	1296
x1 = 0.2017	1308
x1 = 0.2773	1327
x1 = 0.3496	1346
x1 = 0.407	1359
x1 = 0.4797	1381
x1 = 0.5882	1414
x1 = 0.6667	1440
x1 = 0.7464	1470
x1 = 0.8033	1494
x1 = 0.8647	1523
x1 = 0.9223	1554
